biological target: T1, rat B1R (bradykinin receptor 1) (Rattus norvegicus, UniProt P97583); experiment: FLIPR Ca2+ assay (Fluo-4) on CHO K1 cells stably transfected with the B1R gene of the rat (rB1R cells): % inhibition at 10 μM / IC50, agonist Des-Arg9-bradykinin; assay type: cell-based; settings: CHO-K1, rat B1R
T1 construct: expressed in transfected cells; host or cells: CHO K1 cells
T1 sequence (P97583 1-337): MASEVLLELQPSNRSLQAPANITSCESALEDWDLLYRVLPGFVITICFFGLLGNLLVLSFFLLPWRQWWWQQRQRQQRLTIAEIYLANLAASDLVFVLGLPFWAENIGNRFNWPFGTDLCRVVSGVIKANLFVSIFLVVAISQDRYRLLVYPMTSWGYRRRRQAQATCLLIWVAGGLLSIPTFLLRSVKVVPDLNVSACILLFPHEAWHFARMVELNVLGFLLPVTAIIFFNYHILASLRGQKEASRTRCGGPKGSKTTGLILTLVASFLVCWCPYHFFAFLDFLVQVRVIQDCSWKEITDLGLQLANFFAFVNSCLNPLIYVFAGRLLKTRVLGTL
In short: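 Cells were Fluo-4-loaded, then test compound (10 μM, or a concentration series for IC50) was preincubated 10–20 min before agonist challenge at EC80: Lys-Des-Arg9-bradykinin for hB1R, Des-Arg9-bradykinin for rB1R. Peak Ca2+ fluorescence (ex 488/em 540 nm) gave % inhibition versus maximal achievable inhibition.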

SMILES | inhibition at 10 µM [%]
N#Cc1ccc(CN2CCC3(CC2)CCN(C(=O)c2ccc4c(c2)C(N(C(=O)c2ccccc2Cl)C2CC2)CC4)C3)cc1 (centres unmarked) [IND_CC-539, 2-Chloro-N-[6-[8-[(4-cyano-phenyl)-methyl]-2,8-diazaspiro[4.5]decane-2-carbonyl]-2,3-dihydro-1H-inden-1-yl]-N-cyclopropyl-benzamide] | 75
N#Cc1cccc(CN2CCC3(CC2)CCN(C(=O)c2ccc4c(c2)C(N(C(=O)c2ccccc2Cl)C2CC2)CC4)C3)c1 (centres unmarked) [IND_CC-540, 2-Chloro-N-[6-[8-[(3-cyano-phenyl)-methyl]-2,8-diazaspiro[4.5]decane-2-carbonyl]-2,3-dihydro-1H-inden-1-yl]-N-cyclopropyl-benzamide] | 82
N#Cc1ccccc1CN1CCC2(CC1)CCN(C(=O)c1ccc3c(c1)C(N(C(=O)c1ccccc1Cl)C1CC1)CC3)C2 (centres unmarked) [IND_CC-541, 2-Chloro-N-[6-[8-[(2-cyano-phenyl)-methyl]-2,8-diazaspiro[4.5]decane-2-carbonyl]-2,3-dihydro-1H-inden-1-yl]-N-cyclopropyl-benzamide] | 65
O=C(NC1CCc2ccc(C(=O)N3CCC4(CCN(Cc5cc(F)ccc5F)CC4)C3)cc21)c1ccccc1Cl (centres unmarked) [IND_CC-543, 2-Chloro-N-[6-[8-[(2,5-difluoro-phenyl)-methyl]-2,8-diazaspiro[4.5]decane-2-carbonyl]-2,3-dihydro-1H-inden-1-yl]-benzamide] | 102
O=C(NC1CCc2ccc(C(=O)N3CCC4(CCN(Cc5ccc(F)cc5F)CC4)C3)cc21)c1ccccc1Cl (centres unmarked) [IND_CC-544, 2-Chloro-N-[6-[8-[(2,4-difluoro-phenyl)-methyl]-2,8-diazaspiro[4.5]decane-2-carbonyl]-2,3-dihydro-1H-inden-1-yl]-benzamide] | 99
COc1ccc(CN2CCC3(CC2)CCN(C(=O)c2ccc4c(c2)C(NC(=O)c2ccccc2Cl)CC4)C3)cc1F (centres unmarked) [IND_CC-545, 2-Chloro-N-[6-[8-[(3-fluoro-4-methoxy-phenyl)-methyl]-2,8-diazaspiro[4.5]decane-2-carbonyl]-2,3-dihydro-1H-inden-1-yl]-benzamide] | 105
COc1cccc(F)c1CN1CCC2(CC1)CCN(C(=O)c1ccc3c(c1)C(NC(=O)c1ccccc1Cl)CC3)C2 (centres unmarked) [IND_CC-546, 2-Chloro-N-[6-[8-[(2-fluoro-6-methoxy-phenyl)-methyl]-2,8-diazaspiro[4.5]decane-2-carbonyl]-2,3-dihydro-1H-inden-1-yl]-benzamide] | 99
O=C(NC1CCc2ccc(C(=O)N3CCC4(CCN(Cc5cc(F)ccc5F)CC4)C3)cc21)c1sccc1Cl (centres unmarked) [IND_CC-547, 3-Chloro-N-[6-[8-[(2,5-difluoro-phenyl)-methyl]-2,8-diazaspiro[4.5]decane-2-carbonyl]-2,3-dihydro-1H-inden-1-yl]-thiophene-2-carboxylic acid amide] | 71
COc1ccc(CN2CCC3(CC2)CCN(C(=O)c2ccc4c(c2)C(NC(=O)c2sccc2Cl)CC4)C3)cc1F (centres unmarked) [IND_CC-548, 3-Chloro-N-[6-[8-[(3-fluoro-4-methoxy-phenyl)-methyl]-2,8-diazaspiro[4.5]decane-2-carbonyl]-2,3-dihydro-1H-inden-1-yl]-thiophene-2-carboxylic acid amide] | 66
CN(C(=O)c1ccccc1Cl)C1CCc2ccc(C(=O)N3CCC4(CCN(Cc5ccc(F)c(F)c5)CC4)C3)cc21 (centres unmarked) [IND_CC-549, 2-Chloro-N-[6-[8-[(3,4-difluoro-phenyl)-methyl]-2,8-diazaspiro[4.5]decane-2-carbonyl]-2,3-dihydro-1H-inden-1-yl]-N-methyl-benzamide] | 60
CN(C(=O)c1ccccc1Cl)C1CCc2ccc(C(=O)N3CCC4(CCN(Cc5cc(F)ccc5F)CC4)C3)cc21 (centres unmarked) [IND_CC-550, 2-Chloro-N-[6-[8-[(2,5-difluoro-phenyl)-methyl]-2,8-diazaspiro[4.5]decane-2-carbonyl]-2,3-dihydro-1H-inden-1-yl]-N-methyl-benzamide] | 62
CN(C(=O)c1ccccc1Cl)C1CCc2ccc(C(=O)N3CCC4(CCN(Cc5ccc(F)cc5F)CC4)C3)cc21 (centres unmarked) [IND_CC-551, 2-Chloro-N-[6-[8-[(2,4-difluoro-phenyl)-methyl]-2,8-diazaspiro[4.5]decane-2-carbonyl]-2,3-dihydro-1H-inden-1-yl]-N-methyl-benzamide] | 55
COc1ccc(CN2CCC3(CC2)CCN(C(=O)c2ccc4c(c2)C(N(C)C(=O)c2ccccc2Cl)CC4)C3)cc1F (centres unmarked) [IND_CC-552, 2-Chloro-N-[6-[8-[(3-fluoro-4-methoxy-phenyl)-methyl]-2,8-diazaspiro[4.5]-decane-2-carbonyl]-2,3-dihydro-1H-inden-1-yl]-N-methyl-benzamide] | 68
Cc1nc(CN2CCC3(CC2)CCN(C(=O)c2ccc4c(c2)C(NC(=O)c2ccccc2Cl)CC4)C3)c[nH]1 (centres unmarked) [IND_CC-554, 2-Chloro-N-[6-[8-[(2-methyl-1H-imidazol-4-yl)-methyl]-2,8-diazaspiro[4.5]decane-2-carbonyl]-2,3-dihydro-1H-inden-1-yl]-benzamide] | 73
O=C(NC1CCc2ccc(C(=O)N3CCC4(CCN(Cc5csnn5)CC4)C3)cc21)c1ccccc1Cl (centres unmarked) [IND_CC-555, 2-Chloro-N-[6-[8-([1,2,3]thiadiazol-4-yl-methyl)-2,8-diazaspiro[4.5]decane-2-carbonyl]-2,3-dihydro-1H-inden-1-yl]-benzamide] | 91
O=C(NC1CCc2ccc(C(=O)N3CCC4(CCN(Cc5c(F)cccc5Cl)CC4)C3)cc21)c1ccccc1Cl (centres unmarked) [IND_CC-557, 2-Chloro-N-[6-[8-[(2-chloro-6-fluoro-phenyl)-methyl]-2,8-diazaspiro[4.5]decane-2-carbonyl]-2,3-dihydro-1H-inden-1-yl]-benzamide] | 103
CN(C(=O)c1ccccc1Cl)C1CCc2ccc(C(=O)N3CCC4(CCN(Cc5c(F)cccc5Cl)CC4)C3)cc21 (centres unmarked) [IND_CC-558, 2-Chloro-N-[6-[8-[(2-chloro-6-fluoro-phenyl)-methyl]-2,8-diazaspiro[4.5]-decane-2-carbonyl]-2,3-dihydro-1H-inden-1-yl]-N-methyl-benzamide] | 62
Cc1c(CN2CCC3(CC2)CCN(C(=O)c2ccc4c(c2)C(NC(=O)c2ccccc2Cl)CC4)C3)cnn1C (centres unmarked) [IND_CC-559, 2-Chloro-N-[6-[8-[(1,5-dimethyl-1H-pyrazol-4-yl)-methyl]-2,8-diazaspiro[4.5]decane-2-carbonyl]-2,3-dihydro-1H-inden-1-yl]-benzamide] | 56
Cc1noc(C)c1CN1CCC2(CC1)CCN(C(=O)c1ccc3c(c1)C(NC(=O)c1ccccc1Cl)CC3)C2 (centres unmarked) [IND_CC-560, 2-Chloro-N-[6-[8-[(3,5-dimethyl-isoxazol-4-yl)-methyl]-2,8-diazaspiro[4.5]decane-2-carbonyl]-2,3-dihydro-1H-inden-1-yl]-benzamide] | 95
N#Cc1ccc(CN2CCC3(CC2)CCN(C(=O)c2ccc4c(c2)C(NC(=O)c2ccccc2Cl)CC4)C3)cc1 (centres unmarked) [IND_CC-561, 2-Chloro-N-[6-[8-[(4-cyano-phenyl)-methyl]-2,8-diazaspiro[4.5]decane-2-carbonyl]-2,3-dihydro-1H-inden-1-yl]-benzamide] | 85
N#Cc1ccccc1CN1CCC2(CC1)CCN(C(=O)c1ccc3c(c1)C(NC(=O)c1ccccc1Cl)CC3)C2 (centres unmarked) [IND_CC-563, 2-Chloro-N-[6-[8-[(2-cyano-phenyl)-methyl]-2,8-diazaspiro[4.5]decane-2-carbonyl]-2,3-dihydro-1H-inden-1-yl]-benzamide] | 92
Cc1nn(C)c(C)c1CN1CCC2(CC1)CCN(C(=O)c1ccc3c(c1)C(NC(=O)c1ccccc1Cl)CC3)C2 (centres unmarked) [IND_CC-564, 2-Chloro-N-[6-[8-[(1,3,5-trimethyl-1H-pyrazol-4-yl)-methyl]-2,8-diazaspiro[4.5]decane-2-carbonyl]-2,3-dihydro-1H-inden-1-yl]-benzamide] | 81
CCn1cc(CN2CCC3(CC2)CCN(C(=O)c2ccc4c(c2)C(NC(=O)c2ccccc2Cl)CC4)C3)c(C)n1 (centres unmarked) [IND_CC-565, 2-Chloro-N-[6-[8-[(1-ethyl-3-methyl-1H-pyrazol-4-yl)-methyl]-2,8-diazaspiro[4.5]decane-2-carbonyl]-2,3-dihydro-1H-inden-1-yl]-benzamide] | 68
CN(C)c1ncc(CN2CCC3(CC2)CCN(C(=O)c2ccc4c(c2)C(NC(=O)c2ccccc2Cl)CC4)C3)cn1 (centres unmarked) [IND_CC-566, 2-Chloro-N-[6-[8-[(2-dimethylamino-pyrimidin-5-yl)-methyl]-2,8-diazaspiro[4.5]decane-2-carbonyl]-2,3-dihydro-1H-inden-1-yl]-benzamide] | 90
O=C(NC1CCc2ccc(C(=O)N3CCC4(CCN(Cc5ccc6ncccc6c5)CC4)C3)cc21)c1ccccc1Cl (centres unmarked) [IND_CC-567, 2-Chloro-N-[6-[8-(quinolin-6-yl-methyl)-2,8-diazaspiro[4.5]decane-2-carbonyl]-2,3-dihydro-1H-inden-1-yl]-benzamide] | 100
N#Cc1ccc(CN2CCC3(CC2)CCN(C(=O)c2ccc4c(c2)C(NC(=O)c2sccc2Cl)CC4)C3)cc1 (centres unmarked) [IND_CC-569, 3-Chloro-N-[6-[8-[(4-cyano-phenyl)-methyl]-2,8-diazaspiro[4.5]decane-2-carbonyl]-2,3-dihydro-1H-inden-1-yl]-thiophene-2-carboxylic acid amide] | 52

— patent US8455475B2 (Gruenenthal GmbH, priority 2009, dated 2013)
